Reference: US8822447B2, “Indazole compounds useful as ketohexokinase inhibitors” (Janssen Pharmaceutica NV, priority 2010, dated 2014)
Where a name gives a salt, the structure may show the parent alone.

Biological target: KHK (Homo sapiens (Human), UniProt P50053)
Assay: In Vitro KHK Enzyme Assay (HTMS);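 note: primary screen measuring inhibition of KHK-catalysed conversion of D-fructose into fructose 1-phosphate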
Type: biochemical
Conditions: 200 μM fructose, 100 μM ATP, 2 nM KHK, 60 min at 25° C.; Fructose-1-P detected by high throughput mass spectrometry
Experimental: An enzymatic assay was developed to measure KHK-mediated conversion of D-fructose to Fructose-1-P (F-1-P) using High Throughput Mass Spectroscopy (HTMS) as a means of product detection. This assay served as a primary screen to evaluate the ability to inhibit KHK enzyme activity and it has been adapted to high throughput mass spectrometry (HTMS, BioTrove RapidFire™) format for higher throughput.
The compounds to be tested were dosed in 12-points concentration from 511 μM to 0.5 μM. […] The assay was carried out in 384-well plate format.

Chain of KHK (P50053 whole entry): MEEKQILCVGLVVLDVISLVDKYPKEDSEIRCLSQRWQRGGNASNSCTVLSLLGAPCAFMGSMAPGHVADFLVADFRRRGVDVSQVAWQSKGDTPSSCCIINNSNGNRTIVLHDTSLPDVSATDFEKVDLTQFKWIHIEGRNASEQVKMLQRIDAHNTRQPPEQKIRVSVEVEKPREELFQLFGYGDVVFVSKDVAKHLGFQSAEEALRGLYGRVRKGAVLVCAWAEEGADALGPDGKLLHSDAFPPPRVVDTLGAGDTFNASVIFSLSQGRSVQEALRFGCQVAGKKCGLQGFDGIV

SMILES	IC50
CSc1nn(-c2ccc(N)cc2)c2cc(C(=O)NC3CCNCC3)ccc12 [Compound 111, 1-(4-Amino-phenyl)-3-methylsulfanyl-1H-indazole-6-carboxylic acid piperidin-4-ylamide]	2610 nM
COc1nn(-c2ccccc2)c2cc(N3CC(N4CCNCC4)C3)ccc12 [Compound 73, 3-Methoxy-1-phenyl-6-(3-(piperazin-1-yl)azetidin-1-yl)-1H-indazole hydrochloride]	390 nM
CCc1nn(-c2ccccc2)c2nc(-c3ccc(NC4CCNCC4)cc3)cc(O)c12 [Compound 100, 3-Ethyl-1-phenyl-6-[4-(piperidin-4-ylamino)-phenyl]-1H-pyrazolo[3,4-b]pyridin-4-ol]	1720 nM
CCc1nn(-c2ccccc2)c2cc(N3CCN(C4CCNC4)C3=O)ccc12 (stereo not shown) [Compound 48, 1-(3-Ethyl-1-phenyl-1H-indazol-6-yl)-3-(pyrrolidin-3-yl)imidazolidin-2-one hydrochloride]	2370 nM
CSc1nn(-c2ccccc2)c2cc(CCC3CCNCC3)ccc12 [Compound 185, 3-Methylsulfanyl-1-phenyl-6-(2-piperidin-4-yl-ethyl)-1H-indazole]	920 nM
CSc1nn(-c2ccccc2)c2cc(NC(=O)C3CCCN3)ccc12 (stereo not shown) [Compound 13, N-(3-(Methylthio)-1-phenyl-1H-indazol-6-yl)pyrrolidine-2-carboxamide hydrochloride]	260 nM
CCc1nn(-c2ccccc2)c2cc(N3CCN(c4ccncc4)CC3)ccc12 [Compound 47, 3-Ethyl-1-phenyl-6-(4-(pyridin-4-yl)piperazin-1-yl)-1H-indazole hydrochloride]	3510 nM
COc1ccc(-n2nc(SC)c3ccc(N4CCNCC4)cc32)cc1 [Compound 122, 1-(4-Methoxy-phenyl)-3-methylsulfanyl-6-piperazin-1-yl-1H-indazole]	830 nM
CCc1nn(-c2ccccc2)c2nc(-c3ccc(N4CC(C)NC(C)C4)cc3)cc(OC)c12 (stereo not shown) [Compound 98, 6-[4-(3,5-Dimethyl-piperazin-1-yl)-phenyl]-3-ethyl-4-methoxy-1-phenyl-1H-pyrazolo[3,4-b]pyridine]	300 nM
CCc1nn(-c2ccccc2)c2cc(N3CCN(C4CCNC4)CC3)ccc12 (stereo not shown) [Compound 45, 3-Ethyl-1-phenyl-6-(4-(pyrrolidin-3-yl)piperazin-1-yl)-1H-indazole hydrochloride]	2060 nM
CSc1nn(-c2ccccc2)c2cc(NC(=O)C3CCCNC3)ccc12 (stereo not shown) [Compound 12, N-(3-(Methylthio)-1-phenyl-1H-indazol-6-yl)piperidine-3-carboxamide hydrochloride]	310 nM
CSc1nn(-c2ccccc2)c2cc(C=CC3CCNCC3)ccc12 [Compound 141, 3-Methylsulfanyl-1-phenyl-6-(2-piperidin-4-yl-vinyl)-1H-indazole]	230 nM
CSc1nn(-c2ccccc2)c2cc(N3CCCNCC3)ccc12 [Compound 11, 6-(1,4-Diazepan-1-yl)-3-(methylthio)-1-phenyl-1H-indazole hydrochloride]	540 nM
CSc1nn(-c2ccccc2)c2cc(N3CCN(c4ccccn4)CC3)ccc12 [Compound 24, 3-(Methylthio)-1-phenyl-6-(4-(pyridin-2-yl)piperazin-1-yl)-1H-indazole]	1560 nM
CSc1nn(-c2ccccc2)c2cc(NC(=O)CC3CCCCN3)ccc12 (stereo not shown) [Compound 3, N-(3-(Methylthio)-1-phenyl-1H-indazol-6-yl)-2-(piperidin-2-yl)acetamide hydrochloride]	860 nM
CCc1nn(-c2ccccc2)c2nc(C3CCNCC3)nc(O)c12 [Compound 91, 3-Ethyl-1-phenyl-6-piperidin-4-yl-1H-pyrazolo[3,4-d]pyrimidin-4-ol hydrochloride]	2400 nM
CSc1nn(-c2ccccc2)c2cc(C(=O)c3ccc4nonc4c3)ccc12 [Compound 174, Benzo[1,2,5]oxadiazol-5-yl-(3-methylsulfanyl-1-phenyl-1H-indazol-6-yl)-methanone]	> 10000 nM
CCc1nn(-c2ccccc2)c2cc(-c3ccc(N4CCNCC4)cc3)ccc12 [Compound 52, 3-Ethyl-1-phenyl-6-(4-(piperazin-1-yl)phenyl)-1H-indazole hydrochloride]	9800 nM
CCc1nn(-c2ccccc2)c2nc(C3CCN(c4ccncc4)CC3)nc(O)c12 [Compound 92, 3-Ethyl-1-phenyl-6-(3,4,5,6-tetrahydro-2H-[1,4′]bipyridinyl-4-yl)-1H-pyrazolo[3,4-d]pyrimidin-4-ol]	1670 nM
CCOc1cc(-c2ccc(N3CCNCC3)cc2)nc2c1c(CC)nn2-c1ccccc1 [Compound 102, 4-Ethoxy-3-ethyl-1-phenyl-6-(4-piperazin-1-yl-phenyl)-1H-pyrazolo[3,4-b]pyridine]	1430 nM
Cc1nn(-c2ccccc2)c2nc(C3CCN(C4CCNCC4)CC3)nc(O)c12 [Compound 89, 6-[1,4′]Bipiperidinyl-4-yl-3-methyl-1-phenyl-1H-pyrazolo[3,4-d]pyrimidin-4-ol hydrochloride]	14000 nM
CSc1nn(-c2ccccc2)c2cc(N3CCN(C4CNC4)CC3)ccc12 [Compound 21, 6-(4-(Azetidin-3-yl)piperazin-1-yl)-3-(methylthio)-1-phenyl-1H-indazole hydrochloride]	2820 nM

SMILES	IC50
CSc1nn(-c2ccccc2)c2cc(N3CCN(CC4CCNC4)C3=O)ccc12 (stereo not shown) [Compound 27, 1-(3-(Methylthio)-1-phenyl-1H-indazol-6-yl)-3-(pyrrolidin-3-ylmethyl)imidazolidin-2-one hydrochloride]	5170 nM
CSc1nn(-c2ccccc2)c2cc(NC(=O)NC3CCNCC3)ccc12 [Compound 7, 1-(3-(Methylthio)-1-phenyl-1H-indazol-6-yl)-3-(piperidin-4-yl)urea hydrochloride]	700 nM
Cc1nn(-c2ccccc2)c2cc(-c3ccc(N4CCNCC4)cc3)ccc12 [Compound 58, 3-Methyl-1-phenyl-6-(4-piperazin-1-yl-phenyl)-1H-indazole hydrochloride]	7500 nM
CCc1nn(-c2ccccc2)c2cc(N3CCN(C4CCNCC4)CC3)ccc12 [Compound 46, 3-Ethyl-1-phenyl-6-(4-(piperidin-4-yl)piperazin-1-yl)-1H-indazole hydrochloride]	560 nM
CSc1nn(-c2ccccc2)c2cc(C(O)C3CCNCC3)ccc12 (stereo not shown) [Compound 136, (3-Methylsulfanyl-1-phenyl-1H-indazol-6-yl)-piperidin-4-yl-methanol]	> 2000 nM
CCc1nn(-c2ccccc2)c2cc(N3CCNCC3)ccc12 [Compound 42, 3-Ethyl-1-phenyl-6-(piperazin-1-yl)-1H-indazole]	570 nM
Cc1nn(-c2ccccc2)c2cc(N3CCN(C)CC3)ccc12 [Compound 68, 3-Methyl-6-(4-methylpiperazin-1-yl)-1-phenyl-1H-indazole]	1570 nM
Cc1nn(-c2ccccc2)c2nc(C3CCN(c4cccnc4)CC3)nc(O)c12 [Compound 84, 3-Methyl-1-phenyl-6-(3,4,5,6-tetrahydro-2H-[1,3′]bipyridinyl-4-yl)-1H-pyrazolo[3,4-d]pyrimidin-4-ol]	> 30000 nM
CSc1nn(-c2cccc(F)c2)c2cc(C3=CCNCC3)ccc12 [Compound 179, 1-(3-Fluoro-phenyl)-3-methylsulfanyl-6-(1,2,3,6-tetrahydro-pyridin-4-yl)-1H-indazole]	40 nM
CCc1nn(-c2ccccc2)c2nc(C3CCN(C4CCNC4)CC3)nc(O)c12 (stereo not shown) [Compound 94, 3-Ethyl-1-phenyl-6-(1-pyrrolidin-3-yl-piperidin-4-yl)-1H-pyrazolo[3,4-d]pyrimidin-4-ol hydrochloride]	5270 nM
Cc1nn(-c2ccccc2)c2nc(-c3ccc(N4CCNCC4)cc3)cc(O)c12 [Compound 97, 3-Methyl-1-phenyl-6-(4-piperazin-1-yl-phenyl)-1H-pyrazolo[3,4-b]pyridin-4-ol]	2710 nM
CSc1nn(-c2ccccc2C)c2cc(C3=CCNCC3)ccc12 [Compound 180, 3-Methylsulfanyl-6-(1,2,3,6-tetrahydro-pyridin-4-yl)-1-o-tolyl-1H-indazole]	> 10000 nM
COc1nn(-c2ccccc2)c2cc(N3CCN(c4ccncc4)CC3)ccc12 [Compound 77, 3-Methoxy-1-phenyl-6-(4-(pyridin-4-yl)piperazin-1-yl)-1H-indazole hydrochloride]	8100 nM
CSc1nn(-c2ccccc2)c2cc(NC(=O)C3(C)CCNCC3)ccc12 [Compound 158, 4-Methyl-piperidine-4-carboxylic acid (3-methylsulfanyl-1-phenyl-1H-indazol-6-yl)-amide]	700 nM
CCc1nn(-c2ccccc2)c2nc(N3CCN(c4cccnc4)CC3)ncc12 [Compound 83, 3-Ethyl-1-phenyl-6-(4-(pyridin-3-yl)piperazin-1-yl)-1H-pyrazolo[3,4-d]pyrimidine trifluoroacetic acid]	> 30000 nM
CCc1nn(-c2ccccc2)c2cc(NC(=O)c3cccc(C(=N)N)c3)ccc12 [Compound 40, 3-Carbamimidoyl-N-(3-ethyl-1-phenyl-1H-indazol-6-yl)benzamide acetate]	680 nM
CCN1CCN(c2ccc3c(C)nn(-c4ccccc4)c3c2)CC1 [Compound 69, 6-(4-Ethylpiperazin-1-yl)-3-methyl-1-phenyl-1H-indazole 2,2,2-trifluoroacetic acid salt]	14200 nM
Cc1nn(-c2ccccc2)c2cc(N3CCC(N4CCNCC4)C3)ccc12 (stereo not shown) [Compound 61, 3-Methyl-1-phenyl-6-(3-(piperazin-1-yl)pyrrolidin-1-yl)-1H-indazole hydrochloride]	1010 nM
CSc1nn(-c2ccccc2)c2cc(NC(=O)C3(F)CCNCC3)ccc12 [Compound 167, 4-Fluoro-piperidine-4-carboxylic acid (3-methylsulfanyl-1-phenyl-1H-indazol-6-yl)-amide]	660 nM
CSc1nn(-c2ccccc2)c2cc(C(=O)CC3CCNCC3)ccc12 [Compound 160, 1-(3-Methylsulfanyl-1-phenyl-1H-indazol-6-yl)-2-piperidin-4-yl-ethanone]	1000 nM
COc1nn(-c2ccccc2)c2cc(N3CCN(C4CCNCC4)C3=O)ccc12 [Compound 81, 1-(3-Methoxy-1-phenyl-1H-indazol-6-yl)-3-(piperidin-4-yl)imidazolidin-2-one hydrochloride]	30000 nM
